We go through 28 molecules from patent US9586931B2 (Merck Sharp & Dohme Corp., priority 2012, dated 2017).

Structures are written as SMILES.

For this test, the target named is T1, recombinant human GST-Syk (Homo sapiens, UniProt P43405).
T1 construct: purchased Carna Biosciences 08-176
The test is described as follows: Homogeneous Time-Resolved Fluorescence (HTRF) assay for the recombinant human Syk enzyme. The test is classed as biochemical. The following applies: recombinant human GST-Syk 5 pM, ATP 25 μM, 10-dose titration 10 μM to 0.508 nM; read-out: rhSYK Activity IC50. The essentials:
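Detection used time-resolved fluorescence 30 min after adding a quench mix (40 mM EDTA, 15 mM Tris pH 7.5, 0.01% Tween 20) containing 2 nM Europium anti-pTyr antibody and 70 nM streptavidin-APC. This followed 45 min of room-temperature peptide phosphorylation by recombinant GST-tagged human Syk.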
In the case of `COc1ccc2[nH]c3c(c2c1)CCN(C(=O)C(C)n1cc(-c2cc(C)cc(Nc4cc(C(F)(F)F)ccn4)n2)nn1)C3` (stereo not drawn) [Example 1.48, 6-{1-[2-(6-methoxy-1,3,4,9-tetrahydro-2H-beta-carbolin-2-yl)-1-methyl-2-oxoethyl]-1H-1,2,3-triazol-4-yl}-4-methyl-N-1.[4-(trifluoromethyl)pyridin-2-yl]pyridin-2-amine], the IC50 amounted to 257 nM.
In the case of `Cc1cc(Nc2nccc(C(F)(F)F)n2)cc(-c2cn(CCS(C)(=O)=O)nn2)c1` [Example 5.62, N-(3-methyl-5-{1-[2-(methylsulfonyl)ethyl]-1H-1,2,3-triazol-4-yl}phenyl)-4-(trifluoromethyl)pyrimidin-2-amine], the IC50 is 46.4 nM.
Next, `Cc1cc(Nc2cc(C(F)(F)F)ccn2)nc(-c2cn(CC(C)(O)CO)nn2)c1` (stereo not shown) [Example 10.16, 2-methyl-3-[4-(4-methyl-6-{[4-(trifluoromethyl)pyridin-2-yl]amino}pyridin-2-yl)-1H-1,2,3-triazol-1-yl]propane-1,2-diol]: 6.1 nM; `COCc1cc(Nc2nccc(C(F)(F)F)n2)cc(-c2cn(C[C@H](O)CO)nn2)c1` [Example 5.23, (2S)-3-{4-[3-(methoxymethyl)-5-{[4-(trifluoromethyl)pyrimidin-2-yl]amino}phenyl]-1H-1,2,3-triazol-1-yl}propane-1,2-diol]: 64.7 nM; `Cc1cc(Nc2cc(C(F)(F)F)ccn2)nc(-c2cn(C(C)C(=O)NCc3cc(-c4ccco4)on3)nn2)c1` (stereo not shown) [Example 1.37, N-[(5-furan-2-ylisoxazol-3-yl)methyl]-2-[4-(4-methyl-6-{[4-(trifluoromethyl)pyridin-2-yl]amino}pyridin-2-yl)-1H-1,2,3-triazol-1-yl]propanamide]: 33.9 nM.
For `Cc1cc(Nc2cc(C(F)(F)F)ccn2)nc(-c2nncn2C)c1` [Example 16.3, 4-methyl-6-(4-methyl-4H-1,2,4-triazol-3-yl)-N-[4-(trifluoromethyl)pyridin-2-yl]pyridin-2-amine], the IC50 came to 389 nM.
As to `Cc1cc(Nc2cc(C(F)(F)F)ccn2)nc(-c2cn(C(C)C(=O)N3CCC(c4ccncc4)C3)nn2)c1` (stereo not shown) [Example 1.53, 4-methyl-6-{1-[1-methyl-2-oxo-2-(3-pyridin-4-ylpyrrolidin-1-yl)ethyl]-1H-1,2,3-triazol-4-yl}-N-[4-(trifluoromethyl)pyridin-2-yl]pyridin-2-amine], the IC50 was determined as 34.7 nM.
With `Cc1cc(Nc2nccc(C(F)(F)F)n2)cc(-c2cn(CCCN3CCNC3=O)nn2)c1` [Example 5.71, 1-{3-[4-(3-methyl-5-{[4-(trifluoromethyl)pyrimidin-2-yl]amino}phenyl)-1H-1,2,3-triazol-1-yl]propyl}imidazolidin-2-one], the IC50 was determined as 152 nM.
Take `Cc1cc(Nc2cc(C(F)(F)F)ccn2)nc(-c2cn(C(C)C(=O)NCC(c3ccc(C(F)(F)F)cc3)N3CCOCC3)nn2)c1` (stereo not shown) [Example 1.52, 2-[4-(4-methyl-6-{[4-(trifluoromethyl)pyridin-2-yl]amino}pyridin-2-yl)-1H-1,2,3-triazol-1-yl]-N-{2-morpholin-4-yl-2-[4-(trifluoromethyl)phenyl]ethyl}propanamide]: the IC50 worked out at 435 nM.
As to `Cc1cc(Nc2cc(C(F)(F)F)ccn2)nc(-c2cn(C3CCC(C(=O)O)CC3)nn2)c1` (mixture of isomers) [Example 5.46, 4-[4-(4-methyl-6-{[4-(trifluoromethyl)pyridin-2-yl]amino}pyridin-2-yl)-1H-1,2,3-triazol-1-yl]cyclohexane-carboxylic acid], the IC50 was 4.9 nM.
On to `Cc1cc(Nc2cc(C(F)(F)F)ccn2)nc(-c2cn(CS(N)(=O)=O)nn2)c1` [Example 5.107, 1-[4-(4-methyl-6-{[4-(trifluoromethyl)pyridin-2-yl]amino}pyridin-2-yl)-1H-1,2,3-triazol-1-yl]methanesulfonamide], for which the concentration for half-maximal inhibition (IC50) is 5.1 nM.
Next, `Cc1cc(Nc2ncc(F)c(C(F)F)n2)cc(-c2cn(CC(C)(O)C(C)(C)O)nn2)c1` (stereo not shown) [Example 21.34, 1-[4-(3-{[4-(difluoromethyl)-5-fluoropyrimidin-2-yl]amino}-5-methylphenyl)-1H-1,2,3-triazol-1-yl]-2,3-dimethylbutane-2,3-diol]: 18.2 nM; `Cc1cc(Nc2cc(C(F)(F)F)ccn2)nc(-c2cn(C(C)C(=O)N3CCc4ccccc4C3)nn2)c1` (stereo not shown) [Example 1.28, 6-{1-[2-(3,4-dihydroisoquinolin-2(1H)-yl)-1-methyl-2-oxoethyl]-1H-1,2,3-triazol-4-yl}-4-methyl-N-[4-(trifluoromethyl)pyridin-2-yl]pyridin-2-amine]: 645 nM; `Cc1cc(Nc2cc(C(F)(F)F)ccn2)nc(-c2cn(C3CN(C(=O)C(C)O)CC3O)nn2)c1` (single isomer, unassigned) [Example 13.2, 1-[2-hydroxypropanoyl]-4-[4-(4-methyl-6-{[4-(trifluoromethyl)pyridin-2-yl]amino}pyridin-2-yl)-1H-1,2,3-triazol-1-yl]pyrrolidin-3-ol]: 23.6 nM.
`Cc1cc(Nc2cc(C(F)(F)F)ccn2)nc(-c2cn(C3CCC(C(N)=O)c4ccccc43)nn2)c1` (stereo not shown) [Example 1.11, 4-[4-(4-methyl-6-{[4-(trifluoromethyl)pyridin-2-yl]amino}pyridin-2-yl)-1H-1,2,3-triazol-1-yl]-1,2,3,4-tetrahydronaphthalene-1-carboxamide]: the half-inhibitory concentration (IC50) came to 20.3 nM.
As to `COc1ccnc(Nc2cc(C)cc(-c3cn(CC(C)(O)C(C)(C)O)nn3)c2)n1` (stereo not shown) [Example 21.23, 1-(4-{3-[(4-methoxypyrimidin-2-yl)amino]-5-methylphenyl}-1H-1,2,3-triazol-1-yl)-2,3-dimethylbutane-2,3-diol], the IC50 came out at 27.9 nM.
As to `Cc1cc(Nc2nccc(C(F)F)n2)cc(-c2cn(Cc3ccc(=O)[nH]c3)nn2)c1` [Example 33, 5-((4-(3-((4-(Difluoromethyl)pyrimidin-2-yl)amino)-5-methylphenyl)-1H-1,2,3-triazol-1-yl)methyl)pyridin-2(3H)-one], the concentration for half-maximal inhibition (IC50) was determined as 3.7 nM.
Turning to `Cc1cc(Nc2nccc(C(F)F)n2)cc(-c2cn(CC3=CCC(=O)N=C3)nn2)c1` [Example 7.16, 5-((4-(3-((4-(difluoromethyl)pyrimidin-2-yl)amino)-5-methylphenyl)-1H-1,2,3-triazol-1-yl)methyl)pyridin-2(3H)-one], the IC50 came out at 2.3 nM.
With `Cc1cc(Nc2cc(C(F)(F)F)ccn2)nc(-c2cn(C3CCCCC(O)C3O)nn2)c1` (single isomer, unassigned) [Example 10.2, 3-[4-(4-methyl-6-{[4-(trifluoromethyl)pyridin-2-yl]amino}pyridin-2-yl)-1H-1,2,3-triazol-1-yl]cycloheptane-1,2-diol], the IC50 came to 17.7 nM.
Then `Cc1cc(Nc2cc(C(F)(F)F)ccn2)nc(-c2cn(CC3(O)CCC3)nn2)c1` [Example 4.27, 1-{[4-(4-methyl-6-{[4-(trifluoromethyl)pyridin-2-yl]amino}pyridin-2-yl)-1H-1,2,3-triazol-1-yl]methyl}cyclobutanol], with 2 nM.
Turning to `Cc1cc(Nc2cc(C(F)(F)F)ccn2)nc(-c2cn(C(C(=O)O)c3ccccc3)nn2)c1` (stereo not shown) [Example 3.11, [4-(4-methyl-6-{[4-(trifluoromethyl)pyridin-2-yl]amino}pyridin-2-yl)-1H-1,2,3-triazol-1-yl](phenyl)acetic acid], the IC50 came to 5.1 nM.
On to `Cc1cc(Nc2cc(C(F)(F)F)ccn2)nc(-c2cn(C(C)C(=O)NCCc3ccc(Oc4ccccc4)cc3)nn2)c1` (stereo not shown) [Example 1.46, 2-[4-(4-methyl-6-{[4-(trifluoromethyl)pyridin-2-yl]amino}pyridin-2-yl)-1H-1,2,3-triazol-1-yl]-N-[2-(4-phenoxyphenyl)ethyl]propanamide], for which the IC50 is 1400 nM.
Consider `COC(=O)[C@@H]1CCCN1C(=O)[C@H](C)n1cc(-c2cc(C)cc(Nc3cc(C(F)(F)F)ccn3)n2)nn1` [Example 1.56, methyl 1-{(2S)-2-[4-(4-methyl-6-{[4-(trifluoromethyl)pyridin-2-yl]amino}pyridin-2-yl)-1H-1,2,3-triazol-1-yl]propanoyl}prolinate], for which the IC50 is 423 nM.
On to `Cc1cc(Nc2cc(C(F)(F)F)ccn2)nc(-c2cn(CC3(O)CCC(C(=O)O)C(C)(C)C3)nn2)c1` (stereo not shown) [Example 3.5, 4-hydroxy-2,2-dimethyl-4-{[4-(4-methyl-6-{[4-(trifluoromethyl)pyridin-2-yl]amino}pyridin-2-yl)-1H-1,2,3-triazol-1-yl]methyl}cyclohexanecarboxylic acid], for which the IC50 was determined as 70.4 nM.
Turning to `CCOC(=O)/C=C/Cn1cc(-c2cc(C)cc(Nc3cc(C(F)(F)F)ccn3)n2)nn1` [Example 5.34, ethyl (2E)-4-[4-(4-methyl-6-{[4-(trifluoromethyl)pyridin-2-yl]amino}pyridin-2-yl)-1H-1,2,3-triazol-1-yl]but-2-enoate], the IC50 was 171 nM.
On to `Cc1cc(Nc2nccc(C(F)(F)F)n2)cc(-c2cn(C(C)C(O)CC#N)nn2)c1` (single isomer, unassigned) [Example 4.7, 3-hydroxy-4-[4-(3-methyl-5-{[4-(trifluoromethyl)pyrimidin-2-yl]amino}phenyl)-1H-1,2,3-triazol-1-yl]pentanenitrile], for which the IC50 was 15.8 nM.
`Cc1cc(Nc2cc(C(F)(F)F)ccn2)nc(-c2cn(CC(O)c3ccc(C(=O)O)cc3)nn2)c1` (stereo not shown) [Example 3.18, 4-{1-hydroxy-2-[4-(4-methyl-6-{[4-(trifluoromethyl)pyridin-2-yl]amino}pyridin-2-yl)-1H-1,2,3-triazol-1-yl]ethyl}benzoic acid]: the IC50 came to 1.9 nM.
`Cc1cc(Nc2cc(C(F)(F)F)ccn2)nc(-c2cn(C(C)C(=O)NCc3c(-c4ccccc4)noc3C)nn2)c1` (stereo not shown) [Example 1.47, N-[(5-methyl-3-phenylisoxazol-4-yl)methyl]-2-[4-(4-methyl-6-{[4-(trifluoromethyl)pyridin-2-yl]amino}pyridin-2-yl)-1H-1,2,3-triazol-1-yl]propanamide]: the IC50 is 345 nM.
